Several values for one entry are separate records, joined by “and”; a condition that tells them apart may be missing. Identical values can stand only once. Counter-ions that a name gives are not always drawn. Like-named read-outs stand apart in the source and are kept apart here.
Legend:
line HCT 116 (colon) = test: Cytotoxic activity: inhibition of cell proliferation, ATPLite luminescence of residual ATP after 72 hours; type: cell-based, human; conditions: HCT 116 colon tumoral line, 72 hours of incubation, read-out: IC50 (nM) HCT116
Experimental: (§1) The cytotoxic activity of the compounds prepared according to the invention was evaluated by measuring inhibition of the cell proliferation of tumoral lines of human origin, such as line A549 (lung) and line HCT 116 (colon). This activity is expressed by IC50, concentration of the tested product capable of inhibiting 50% of cell proliferation. The method used is luminescence measurement of the residual ATP after 72 hours of incubation using the “ATPLite®” kit marketed by Perkin Elmer, as described in the following publication: “Measurement of cytotoxicity by ATP-based luminescence assay in primary cell cultures and cell lines”. I. A. Cree, P. E. Andreotti, Toxicology in Vitro, 11, 553-6, (1997).
(§2) The concentration values are expressed in nanomolar (nM).

line A549 (lung) = test: as above; type: cell-based, human; conditions: A549 lung tumoral line, 72 hours of incubation
Experimental: as §1, §2

[1] = Solubility measurement in buffer D-PBS 1X (pH = 7.2); conditions: for solubility: pH 7.2, aqueous buffer
Description: The solvent used is constituted by a buffered solution at pH=7.2 “Dulbecco's Phosphate Buffered Saline” (D-PBS 1X), marketed by Gibco (reference 14190).

SMILES | IC50 (line HCT 116 (colon); Homo sapiens) | IC50 (line A549 (lung); Homo sapiens) | further results
O=C1N[C@H]2[C@H](O)[C@H](O)[C@@H](O)[C@H](NCc3ccccc3)[C@@H]2c2cc3c(c(O)c21)OCO3 [Compound 14, (1R,2S,3R,4S,4aR,11bS)-1-(benzylamino)-2,3,4,7-tetrahydroxy-1,2,3,4,4a,5-hexahydro-[1,3]dioxolo[4,5-j]phenanthridin-6(11bH)-one] | 12 nM | 22 nM | 
O=C1N[C@H]2[C@H](O)[C@H](O)[C@@H](O)[C@H](NC(=O)C3CCCCC3)[C@@H]2c2cc3c(c(O)c21)OCO3 [Compound 21, N-((1R,2S,3R,4S,4aR,11bS)-2,3,4,7-tetrahydroxy-6-oxo-1,2,3,4,4a,5,6,11b-octahydro-[1,3]dioxolo[4,5-j]phenanthridin-1-yl)cyclohexanecarboxamide] | 13 nM | 46 nM | 
N[C@H]1[C@H](O)[C@@H](O)[C@@H](O)[C@@H]2NC(=O)c3c(cc4c(c3O)OCO4)[C@@H]12 [Compound 6, (1R,2S,3R,4S,4aR,11bS)-1-amino-2,3,4,7-tetrahydroxy-1,2,3,4,4a,5-hexahydro-[1,3]dioxolo[4,5-j]phenanthridin-6(11bH)-one] | 35 nM | 60 nM | Solubility Buffer D-PBS 1X (pH = 7.2), mass by volume unit ([1]; D-PBS 1X, pH = 7.2): 508 μg/mL; Solubility Buffer D-PBS 1X (pH = 7.2), molarity ([1]; D-PBS 1X, pH = 7.2): 1340 μM
CC(C)(C)OC(=O)N[C@H]1[C@H](O)[C@@H](O)[C@@H](O)[C@@H]2NC(=O)c3c(cc4c(c3O)OCO4)[C@@H]12 [Compound 10, tert-butyl(1R,2S,3S,4S,4aR,11bR)-2,3,4,7-tetrahydroxy-6-oxo-1,2,3,4,4a,5,6,11b-octahydro-[1,3]dioxolo[4,5-j]phenanthridin-1-ylcarbamate] | 32 nM | 270 nM | 
CN(C)[C@H]1[C@H](O)[C@@H](O)[C@@H](O)[C@@H]2NC(=O)c3c(cc4c(c3O)OCO4)[C@H]21 [Compound 16, (1R,2S,3S,4S,4aR,11bR)-1-(dimethylamino)-2,3,4,7-tetrahydroxy-1,2,3,4,4a,5-hexahydro-[1,3]dioxolo[4,5-j]phenanthridin-6(11bH)-one] | 81 nM | 150 nM | 
O=C(N[C@H]1[C@H](O)[C@@H](O)[C@@H](O)[C@@H]2NC(=O)c3c(cc4c(c3O)OCO4)[C@@H]12)c1ccccc1 [Compound 22, N-((1R,2S,3R,4S,4aR,11bS)-2,3,4,7-tetrahydroxy-6-oxo-1,2,3,4,4a,5,6,11b-octahydro-[1,3]dioxolo[4,5-j]phenanthridin-1-yl)benzamide] | 4.7 nM | 8.7 nM | solubility ([1]; Solubility Buffer D-PBS 1X (pH = 7.2), mass by volume unit, D-PBS 1X, pH = 7.2): 393 µg/mL; solubility ([1]; Solubility Buffer D-PBS 1X (pH = 7.2), molarity, D-PBS 1X, pH = 7.2): 867 µM
N[C@H]1[C@H](O)[C@@H](O)[C@@H](O)[C@@H]2NC(=O)c3c(cc4c(c3O)OCO4)[C@@H]12 [Hydrochloride of Compound 6, (1R,2S,3R,4S,4aR,11bS)-1-amino-2,3,4,7-tetrahydroxy-1,2,3,4,4a,5-hexahydro-[1,3]dioxolo[4,5-j]phenanthridin-6(11bH)-one] |  |  | Solubility Buffer D-PBS 1X (pH = 7.2), molarity ([1]; D-PBS 1X, pH = 7.2): 3870 μM; Solubility Buffer D-PBS 1X (pH = 7.2), mass by volume unit ([1]; D-PBS 1X, pH = 7.2, listed as compound 6 isolated in the hydrochloride form): 1250 μg/mL
[N-]=[N+]=N[C@H]1[C@H](O)[C@@H](O)[C@@H](O)[C@@H]2NC(=O)c3c(cc4c(c3O)OCO4)[C@@H]12 [Compound 5, (1R,2S,3S,4S,4aR,11bR)-1-azido-2,3,4,7-tetrahydroxy-1,2,3,4,4a,5-hexahydro-[1,3]dioxolo[4,5-j]phenanthridin-6(11bH)-one] | 36 nM | 68 nM | 
CN(C)Cc1cccc(C(=O)N[C@H]2[C@H](O)[C@@H](O)[C@@H](O)[C@@H]3NC(=O)c4c(cc5c(c4O)OCO5)[C@@H]23)c1 [Compound 28, 3-((dimethylamino)methyl)-N-((1R,2S,3R,4S,4aR,11bS)-2,3,4,7-tetrahydroxy-6-oxo-1,2,3,4,4a,5,6,11b-octahydro-[1,3]dioxolo[4,5-j]phenanthridin-1-yl)benzamide] | 130 nM | 110 nM | 
O=C1N[C@@H]2C(=C[C@H](O)[C@@H](O)[C@H]2O)c2cc3c(c(O)c21)OCO3 [Narciclasine 1, Narciclasine, reference compound] |  |  | solubility [1]: 401 µM and 131 µg/mL; IC50 (line HCT 116 (colon)): 22 nM; IC50 (line A549 (lung)): 49 nM
